Results reported in patent US10273221B2, “Microbiocidal heterobicyclic derivatives” (Syngenta Participations AG, priority 2015, dated 2019).

Test system: Pyrenophora teres
Experiment: Pyrenophora teres / liquid culture (net blotch)
Assay type: cell-based
Settings: growth inhibition determined photometrically 3-4 days after application, vs untreated control

Compound | inhibition of growth at 20 ppm [%]
CC1(C)N=C(n2cnc3c(C(F)(F)F)cccc32)c2cccc(F)c2C1(C)C [E-5] | ≥ 80
COc1cccc2c1ncn2C1=NC(C)(C)C(C)(C)c2c(F)cccc21 [E-6] | ≥ 80

Test system: Monographella nivalis (Microdochium nivale)
Experiment: Monographella nivalis (Microdochium nivale) / liquid culture (foot rot cereals)
Assay type: cell-based
Settings: 96 h, growth inhibition determined photometrically 4-5 days after application, vs untreated control, read-out: disease control

Compound | inhibition of growth at 200 ppm [%]
CC1(C)N=C(n2cnc3ccccc32)c2cccc(F)c2C1(C)C [E-2] | ≥ 80
CC1(C)N=C(n2cnc3c(C(F)(F)F)cccc32)c2cccc(F)c2C1(C)C [E-5] | ≥ 80
COc1cccc2c1ncn2C1=NC(C)(C)C(C)(C)c2c(F)cccc21 [E-6] | ≥ 80
CC1(C)N=C(n2cnc3c(C4CC4)cccc32)c2cccc(F)c2C1(C)C [E-8] | ≥ 80
Cc1ccc2c(ncn2C2=NC(C)(C)C(F)(F)c3ccccc32)c1Cl [E-31] | ≥ 80
CC1(C)N=C(n2cnc3c(Cl)cccc32)c2ccc(Cl)cc2C1(F)F [E-37] | ≥ 80
Cc1cccc2c1ncn2C1=NC(C)(C)Cc2c(Br)cccc21 [E-38] | ≥ 80
CC1(C)N=C(n2cnc3cc(Cl)c(Cl)cc32)c2cccc(F)c2C1(C)C [E-39] | ≥ 80
Cc1cccc2c1ncn2C1=NC(C)(C)Cc2c(Cl)cccc21 [E-40] | ≥ 80
Cc1c(Br)ccc2c1ncn2C1=NC(C)(C)C(C)(C)c2c(F)cccc21 [E-41] | ≥ 80
Cc1c(Cl)ccc2c1ncn2C1=NC(C)(C)C(C)(C)c2c(F)cccc21 [E-42] | ≥ 80
Cc1cccc2c1ncn2C1=NC2(CCC2)Cc2ccccc21 [E-43] | ≥ 80
Cc1cccc2c1ncn2C1=NCC(C)(C)c2ccccc21 [E-44] | ≥ 80
Cc1cccc2c1ncn2C1=NC(C)(C)C(C)(C)c2c1ccc(Cl)c2F [E-45] | ≥ 80

Test system: Sclerotinia sclerotiorum
Experiment: Sclerotinia sclerotiorum / liquid culture (cottony rot)
Settings: 72 h, read-out: control of Sclerotinia sclerotiorum
Procedure: Sclerotinia sclerotiorum/Liquid Culture (Cottony Rot)
Mycelia fragments of a newly grown liquid culture of the fungus are directly mixed into nutrient broth (Vogels broth). After placing a (DMSO) solution of test compound into a microtiter plate (96-well format) the nutrient broth containing the fungal material is added. The test plates are incubated at 24° C. and the inhibition of growth is determined photometrically 3-4 days after application.

Compound | inhibition of growth at 20 ppm [%]
Cc1ccc2c(ncn2C2=NC(C)(C)C(F)(F)c3ccccc32)c1Cl [E-31] | ≥ 80
CC1(C)N=C(n2cnc3c(Cl)cccc32)c2ccc(Cl)cc2C1(F)F [E-37] | ≥ 80
Cc1cccc2c1ncn2C1=NC(C)(C)Cc2c(Br)cccc21 [E-38] | ≥ 80
CC1(C)N=C(n2cnc3cc(Cl)c(Cl)cc32)c2cccc(F)c2C1(C)C [E-39] | ≥ 80
Cc1cccc2c1ncn2C1=NC(C)(C)Cc2c(Cl)cccc21 [E-40] | ≥ 80
Cc1c(Br)ccc2c1ncn2C1=NC(C)(C)C(C)(C)c2c(F)cccc21 [E-41] | ≥ 80
Cc1c(Cl)ccc2c1ncn2C1=NC(C)(C)C(C)(C)c2c(F)cccc21 [E-42] | ≥ 80
Cc1cccc2c1ncn2C1=NC2(CCC2)Cc2ccccc21 [E-43] | ≥ 80
Cc1cccc2c1ncn2C1=NCC(C)(C)c2ccccc21 [E-44] | ≥ 80
Cc1cccc2c1ncn2C1=NC(C)(C)C(C)(C)c2c1ccc(Cl)c2F [E-45] | ≥ 80

Test system: Gaeumannomyces graminis
Experiment: Gaeumannomyces graminis / liquid culture (take-all of cereals)
Assay type: cell-based
Settings: growth inhibition determined photometrically 4-5 days after application, vs untreated control, read-out: disease control

Compound | inhibition of growth at 200 ppm [%]
CC1(C)N=C(n2cnc3c(C4CC4)cccc32)c2cccc(F)c2C1(C)C [E-8] | ≥ 80
Cc1ccc2c(ncn2C2=NC(C)(C)C(F)(F)c3ccccc32)c1Cl [E-31] | ≥ 80
CC1(C)N=C(n2cnc3c(Cl)cccc32)c2ccc(Cl)cc2C1(F)F [E-37] | ≥ 80
Cc1c(Br)ccc2c1ncn2C1=NC(C)(C)C(C)(C)c2c(F)cccc21 [E-41] | ≥ 80

Test system: Fusarium culmorum
Experiment: microbe, parasite or virus in culture
Assay type: cell-based
Settings: 72 h, read-out: disease control

Compound | inhibition of growth at 200 ppm [%]
CC1(C)N=C(n2cnc3ccccc32)c2cccc(F)c2C1(C)C [E-2] | ≥ 80
Cc1ccc2c(ncn2C2=NC(C)(C)C(F)(F)c3ccccc32)c1Cl [E-31] | ≥ 80
Cc1c(Br)ccc2c1ncn2C1=NC(C)(C)C(C)(C)c2c(F)cccc21 [E-41] | ≥ 80
Cc1c(Cl)ccc2c1ncn2C1=NC(C)(C)C(C)(C)c2c(F)cccc21 [E-42] | ≥ 80
Cc1cccc2c1ncn2C1=NC(C)(C)C(C)(C)c2c1ccc(Cl)c2F [E-45] | ≥ 80

Test system: Glomerella lagenarium (Colletotrichum lagenarium)
Experiment: Glomerella lagenarium (Colletotrichum lagenarium) / liquid culture (anthracnose)
Assay type: cell-based
Settings: Colletotrichum orbiculare, growth inhibition measured photometrically 3-4 days after application, vs untreated control, read-out: disease control

Compound | inhibition of growth at 200 ppm [%]
CC1(C)N=C(n2cnc3ccccc32)c2cccc(F)c2C1(C)C [E-2] | ≥ 80
CC1(C)N=C(n2cnc3c(C(F)(F)F)cccc32)c2cccc(F)c2C1(C)C [E-5] | ≥ 80
COc1cccc2c1ncn2C1=NC(C)(C)C(C)(C)c2c(F)cccc21 [E-6] | ≥ 80
CC1(C)N=C(n2cnc3c(C4CC4)cccc32)c2cccc(F)c2C1(C)C [E-8] | ≥ 80
Cc1ccc2c(ncn2C2=NC(C)(C)C(F)(F)c3ccccc32)c1Cl [E-31] | ≥ 80
Cc1cccc2c1ncn2C1=NC(C)(C)Cc2c(Br)cccc21 [E-38] | ≥ 80
CC1(C)N=C(n2cnc3cc(Cl)c(Cl)cc32)c2cccc(F)c2C1(C)C [E-39] | ≥ 80
Cc1cccc2c1ncn2C1=NC(C)(C)Cc2c(Cl)cccc21 [E-40] | ≥ 80
Cc1c(Br)ccc2c1ncn2C1=NC(C)(C)C(C)(C)c2c(F)cccc21 [E-41] | ≥ 80
Cc1c(Cl)ccc2c1ncn2C1=NC(C)(C)C(C)(C)c2c(F)cccc21 [E-42] | ≥ 80
Cc1cccc2c1ncn2C1=NC2(CCC2)Cc2ccccc21 [E-43] | ≥ 80
Cc1cccc2c1ncn2C1=NCC(C)(C)c2ccccc21 [E-44] | ≥ 80
Cc1cccc2c1ncn2C1=NC(C)(C)C(C)(C)c2c1ccc(Cl)c2F [E-45] | ≥ 80

Test system: Magnaporthe grisea (Pyricularia oryzae)
Experiment: microbe, parasite or virus in culture
Assay type: cell-based
Settings: 72 h, read-out: control of Magnaporthe grisea

Compound | inhibition of growth at 20 ppm [%]
CC1(C)N=C(n2cnc3c(C(F)(F)F)cccc32)c2cccc(F)c2C1(C)C [E-5] | ≥ 80
COc1cccc2c1ncn2C1=NC(C)(C)C(C)(C)c2c(F)cccc21 [E-6] | ≥ 80
CC1(C)N=C(n2cnc3c(C4CC4)cccc32)c2cccc(F)c2C1(C)C [E-8] | ≥ 80
Cc1ccc2c(ncn2C2=NC(C)(C)C(F)(F)c3ccccc32)c1Cl [E-31] | ≥ 80
CC1(C)N=C(n2cnc3c(Cl)cccc32)c2ccc(Cl)cc2C1(F)F [E-37] | ≥ 80
Cc1cccc2c1ncn2C1=NC(C)(C)Cc2c(Br)cccc21 [E-38] | ≥ 80
CC1(C)N=C(n2cnc3cc(Cl)c(Cl)cc32)c2cccc(F)c2C1(C)C [E-39] | ≥ 80
Cc1cccc2c1ncn2C1=NC(C)(C)Cc2c(Cl)cccc21 [E-40] | ≥ 80
Cc1c(Br)ccc2c1ncn2C1=NC(C)(C)C(C)(C)c2c(F)cccc21 [E-41] | ≥ 80
Cc1c(Cl)ccc2c1ncn2C1=NC(C)(C)C(C)(C)c2c(F)cccc21 [E-42] | ≥ 80
Cc1cccc2c1ncn2C1=NC2(CCC2)Cc2ccccc21 [E-43] | ≥ 80
Cc1cccc2c1ncn2C1=NCC(C)(C)c2ccccc21 [E-44] | ≥ 80
Cc1cccc2c1ncn2C1=NC(C)(C)C(C)(C)c2c1ccc(Cl)c2F [E-45] | ≥ 80

Test system: not given
Experiment: not given
Settings: not given

Compound | melting point [°C]
CC1(C)N=C(n2cnc3c(Cl)cccc32)c2ccc(Cl)cc2C1(F)F [E-37] | 197 to 200
Cc1cccc2c1ncn2C1=NC(C)(C)Cc2c(Br)cccc21 [E-38] | 52 to 54
CC1(C)N=C(n2cnc3cc(Cl)c(Cl)cc32)c2cccc(F)c2C1(C)C [E-39] | 126 to 127
Cc1c(Br)ccc2c1ncn2C1=NC(C)(C)C(C)(C)c2c(F)cccc21 [E-41] | 122 to 124
Cc1c(Cl)ccc2c1ncn2C1=NC(C)(C)C(C)(C)c2c(F)cccc21 [E-42] | 102 to 103
Cc1cccc2c1ncn2C1=NC2(CCC2)Cc2ccccc21 [E-43] | 132 to 133
Cc1cccc2c1ncn2C1=NC(C)(C)C(C)(C)c2c1ccc(Cl)c2F [E-45] | 147 to 151

Test system: Botryotinia fuckeliana (Botrytis cinerea)
Experiment: Botryotinia fuckeliana (Botrytis cinerea) / liquid culture (gray mould)
Assay type: cell-based
Settings: growth inhibition determined photometrically 3-4 days after application, vs untreated control, read-out: disease control

Compound | inhibition of growth at 200 ppm [%]
CC1(C)N=C(n2cnc3ccccc32)c2cccc(F)c2C1(C)C [E-2] | ≥ 80
CC1(C)N=C(n2cnc3c(C(F)(F)F)cccc32)c2cccc(F)c2C1(C)C [E-5] | ≥ 80
COc1cccc2c1ncn2C1=NC(C)(C)C(C)(C)c2c(F)cccc21 [E-6] | ≥ 80
CC1(C)N=C(n2cnc3c(C4CC4)cccc32)c2cccc(F)c2C1(C)C [E-8] | ≥ 80
Cc1ccc2c(ncn2C2=NC(C)(C)C(F)(F)c3ccccc32)c1Cl [E-31] | ≥ 80
CC1(C)N=C(n2cnc3c(Cl)cccc32)c2ccc(Cl)cc2C1(F)F [E-37] | ≥ 80
Cc1cccc2c1ncn2C1=NC(C)(C)Cc2c(Br)cccc21 [E-38] | ≥ 80
CC1(C)N=C(n2cnc3cc(Cl)c(Cl)cc32)c2cccc(F)c2C1(C)C [E-39] | ≥ 80
Cc1cccc2c1ncn2C1=NC(C)(C)Cc2c(Cl)cccc21 [E-40] | ≥ 80
Cc1c(Br)ccc2c1ncn2C1=NC(C)(C)C(C)(C)c2c(F)cccc21 [E-41] | ≥ 80
Cc1c(Cl)ccc2c1ncn2C1=NC(C)(C)C(C)(C)c2c(F)cccc21 [E-42] | ≥ 80
Cc1cccc2c1ncn2C1=NC2(CCC2)Cc2ccccc21 [E-43] | ≥ 80
Cc1cccc2c1ncn2C1=NCC(C)(C)c2ccccc21 [E-44] | ≥ 80
Cc1cccc2c1ncn2C1=NC(C)(C)C(C)(C)c2c1ccc(Cl)c2F [E-45] | ≥ 80
